Laboratory results from ChEMBL document CHEMBL1201862, “PubChem BioAssay data set” (2004).
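A five-concentration, 48-hour dose response in 96-well plates underlies each endpoint, interpolated linearly between surrounding concentrations. The concentration for 50% growth inhibition is given as GI50.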 The source made the active and inactive calls. Cut-off read from the data, not from the text of the source: active = GI50 up to about 1.1 µM and inactive = higher.

How the values were obtained:
Experiment in all cases: NCI anticancer screen, dose series, 48 h
HOP-62 = test system: HOP-62
LOX IMVI = test system: LOX IMVI
M14 = test system: M14
SNB-75 = test system: SNB-75
SR = test system: SR
COLO 205 = test system: COLO 205
NCI-H522 = test system: NCI-H522
HOP-18 = test system: HOP-18
HT-29 = test system: HT-29
RPMI-8226 = test system: RPMI-8226
NCI-H460 = test system: NCI-H460
RXF 393 = test system: RXF 393
CAKI-1 = test system: CAKI-1
KM12 = test system: KM12
HL-60 = test system: HL-60
MDA-MB-231 = test system: MDA-MB-231
T47D = test system: T47D
DU-145 = test system: DU-145
BT-549 = test system: BT-549
PC-3 = test system: PC-3

Compound | GI50 (HOP-62) | GI50 (LOX IMVI) | GI50 (M14) | GI50 (SNB-75) | GI50 (SR) | GI50 (COLO 205) | GI50 (NCI-H522) | GI50 (HOP-18) | GI50 (HT-29) | GI50 (RPMI-8226) | GI50 (NCI-H460) | GI50 (RXF 393) | GI50 (CAKI-1) | GI50 (KM12) | GI50 (HL-60) | GI50 (MDA-MB-231) | GI50 (T47D) | GI50 (DU-145) | GI50 (BT-549) | GI50 (PC-3)
Cc1ccc([S+]([O-])C(C)C(Cl)c2ccccc2)cc1 (stereo not drawn) | > 100 µM (inactive) | > 100 µM (inactive) | > 100 µM (inactive) | 48.6 µM (inactive) | 99.3 µM (inactive) | 30.7 µM (inactive) | 28.9 µM (inactive) | > 100 µM (inactive) | 38.8 µM (inactive) | 35.9 µM (inactive) | > 100 µM (inactive) | 53.7 µM (inactive) | > 100 µM (inactive) |  |  |  |  |  |  | 
CC(=O)NC1C(OCc2ccccc2)OC(COC(=O)CCCCCCCCCCNC(=O)c2cccc3c(=O)c4ccccc4[nH]c23)C(O)C1OC(C)C(=O)NC(C)C(=O)NC(CCC(N)=O)C(N)=O (stereo not drawn) | > 100 µM (inactive) | 49.3 µM (inactive) | > 100 µM (inactive) | 56.9 µM (inactive) | 40.1 µM (inactive) | 85.3 µM (inactive) | 89.1 µM (inactive) | 59 µM (inactive) | 75.9 µM (inactive) | 32.1 µM (inactive) | 61.5 µM (inactive) |  | > 100 µM (inactive) | 49.1 µM (inactive) | > 100 µM (inactive) |  |  |  |  | 
Cc1cc2c([nH]c3ccccc32)c2c1OC(C)(C)C1C3CC(C)(C)Oc4c(C)cc5c6ccccc6n(c5c43)C21 (stereo not drawn) | > 100 µM (inactive) | > 100 µM (inactive) | > 100 µM (inactive) | > 100 µM (inactive) | > 100 µM (inactive) | > 100 µM (inactive) | > 100 µM (inactive) | > 100 µM (inactive) | > 100 µM (inactive) | > 100 µM (inactive) | 52.7 µM (inactive) | > 100 µM (inactive) | > 100 µM (inactive) | > 100 µM (inactive) | > 100 µM (inactive) |  |  |  |  | 
N/N=c1\c2ccccc2c2cc3c(cc12)/c(=N/N)c1ccccc13 | > 100 µM (inactive) |  | > 100 µM (inactive) | 59.4 µM (inactive) | 76.2 µM (inactive) | > 100 µM (inactive) | > 100 µM (inactive) | > 100 µM (inactive) | > 100 µM (inactive) | > 100 µM (inactive) | > 100 µM (inactive) | > 100 µM (inactive) |  | > 100 µM (inactive) | > 100 µM (inactive) |  |  |  |  | 
CC(C)C/C(CC(=O)CCC(=O)Nc1ccccc1[N+](=O)[O-])=N\NC(=O)c1cc2ccccc2cc1O | 57.3 µM (inactive) | 27 µM (inactive) | 26.6 µM (inactive) | 37.7 µM (inactive) | 30.2 µM (inactive) | 28.6 µM (inactive) | 28.4 µM (inactive) | 21.8 µM (inactive) | 91.2 µM (inactive) | 50 µM (inactive) | 33.7 µM (inactive) | 9.79 µM (inactive) | 68.2 µM (inactive) | 67.6 µM (inactive) | 23.2 µM (inactive) |  |  |  |  | 
O=C(CSc1nnc(-c2ccc(/N=C\c3ccc(Cl)cc3)cc2)o1)Nc1ccc(Cl)cc1 | > 100 µM (inactive) | > 100 µM (inactive) | > 100 µM (inactive) | > 100 µM (inactive) | > 100 µM (inactive) | > 100 µM (inactive) | > 100 µM (inactive) | > 100 µM (inactive) | > 100 µM (inactive) | 41.7 µM (inactive) | > 100 µM (inactive) | > 100 µM (inactive) |  | > 100 µM (inactive) | > 100 µM (inactive) |  |  |  |  | 
COC(=O)/C=C\C(C#N)(C#N)/N=C/c1ccc(Br)cc1 | 16.7 µM (inactive) | 1.85 µM (inactive) | 7.26 µM (inactive) | 15 µM (inactive) | 5.42 µM (inactive) | 3.37 µM (inactive) | 0.489 µM (active) |  | 2.58 µM (inactive) | 2.38 µM (inactive) | 19.6 µM (inactive) | 4.92 µM (inactive) | 2.66 µM (inactive) | 14.4 µM (inactive) | 0.0389 µM (active) | 4.08 µM (inactive) | 3.63 µM (inactive) | 12.1 µM (inactive) | 11.2 µM (inactive) | 13.4 µM (inactive)
N#C/C(=C/c1cccnc1)C(=O)c1ccccc1 | > 100 µM (inactive) | > 100 µM (inactive) | > 100 µM (inactive) | > 100 µM (inactive) | > 100 µM (inactive) | > 100 µM (inactive) | > 100 µM (inactive) | > 100 µM (inactive) | > 100 µM (inactive) | > 100 µM (inactive) | > 100 µM (inactive) | > 100 µM (inactive) | > 100 µM (inactive) | > 100 µM (inactive) | > 100 µM (inactive) |  |  |  |  | 
O=C(COC(=O)c1cccc2c(=O)c3ccccc3[nH]c12)Nc1ccccc1 | > 100 µM (inactive) | 24.2 µM (inactive) | 38 µM (inactive) | 31.8 µM (inactive) | 18.9 µM (inactive) | 21.7 µM (inactive) | 25.3 µM (inactive) | > 100 µM (inactive) | 31.8 µM (inactive) | 23.7 µM (inactive) | 94.6 µM (inactive) | 33.1 µM (inactive) | 45.8 µM (inactive) | 21.1 µM (inactive) | 16.7 µM (inactive) |  |  |  |  | 
Cc1cc(C)nc(NS(=O)(=O)c2ccc(NNC(=O)c3cccc4c(NNc5ccc(S(=O)(=O)Nc6nc(C)cc(C)n6)cc5)c5ccccc5nc34)cc2)n1 | 27.8 µM (inactive) | 17.2 µM (inactive) | 17.5 µM (inactive) | 17.7 µM (inactive) | 20.5 µM (inactive) | 20.9 µM (inactive) | 18.1 µM (inactive) |  | 21.8 µM (inactive) | 25.6 µM (inactive) | 20.6 µM (inactive) | 20.8 µM (inactive) | 18.8 µM (inactive) | 17.8 µM (inactive) | 20.7 µM (inactive) | 14.6 µM (inactive) | 19.5 µM (inactive) | 19.4 µM (inactive) | 24.7 µM (inactive) | 24.3 µM (inactive)
CN(C)CC1=Nc2cccc3cccc(c23)N1 | > 100 µM (inactive) | 19.4 µM (inactive) | 19.5 µM (inactive) | 16.7 µM (inactive) | 17.9 µM (inactive) | 2.95 µM (inactive) | 1.89 µM (inactive) |  | 22.8 µM (inactive) | 3.3 µM (inactive) | 34.3 µM (inactive) | 17.9 µM (inactive) | 21.5 µM (inactive) | 25.6 µM (inactive) | 13.2 µM (inactive) | 17.8 µM (inactive) | 6.11 µM (inactive) | 17.1 µM (inactive) | 17.6 µM (inactive) | 17 µM (inactive)
Cc1cc2c(c3nocc13)C(=O)c1ccccc1C2=O | > 100 µM (inactive) | > 100 µM (inactive) | > 100 µM (inactive) | 28.6 µM (inactive) |  | > 100 µM (inactive) | > 100 µM (inactive) | > 100 µM (inactive) | > 100 µM (inactive) | > 100 µM (inactive) | > 100 µM (inactive) | > 100 µM (inactive) | > 100 µM (inactive) | > 100 µM (inactive) | 98.2 µM (inactive) |  |  |  |  | 
O=c1c2ccccc2nc(-c2ccccc2)n1NC(=S)Nc1ccc(Cl)cc1 | > 100 µM (inactive) | > 100 µM (inactive) | > 100 µM (inactive) | 59.4 µM (inactive) | 65.9 µM (inactive) | > 100 µM (inactive) | 34.7 µM (inactive) | > 100 µM (inactive) | 53.8 µM (inactive) | 69.7 µM (inactive) | 59.4 µM (inactive) | 41.9 µM (inactive) | > 100 µM (inactive) | 85.9 µM (inactive) | 56.9 µM (inactive) |  |  |  |  | 
COc1cc(/C=C/c2ccc(OC)c(OC)c2OC)cc(OC)c1OC | 15.6 µM (inactive) | 16.1 µM (inactive) | 25.4 µM (inactive) | 10.8 µM (inactive) | 12.2 µM (inactive) | 17.3 µM (inactive) | 15.3 µM (inactive) | 17.5 µM (inactive) | 20.8 µM (inactive) | 14.1 µM (inactive) | 20.3 µM (inactive) | 22 µM (inactive) | 25.1 µM (inactive) | 22 µM (inactive) | 23.1 µM (inactive) |  |  |  |  | 
COC(=O)c1cc2c(c(C(=O)OC)c1O)C(=O)C=CC2=O | 30 µM (inactive) | 36.4 µM (inactive) | > 44.9 µM (inactive) | 9.95 µM (inactive) |  | > 50.2 µM (inactive) |  | 4.88 µM (inactive) | > 9.1 µM (inactive) | > 9.1 µM (inactive) | > 50.1 µM (inactive) | > 29.1 µM (inactive) | > 9.1 µM (inactive) | > 43.5 µM (inactive) |  |  |  |  |  | 
CCOC(=O)/C(=C\c1ccc(N(CCC#N)CCC#N)cc1)NC(=O)c1cc([N+](=O)[O-])ccc1Cl | > 100 µM (inactive) | 69 µM (inactive) | > 100 µM (inactive) | > 100 µM (inactive) |  | > 100 µM (inactive) | 56.1 µM (inactive) | > 100 µM (inactive) | > 100 µM (inactive) | 56.6 µM (inactive) | > 100 µM (inactive) | > 100 µM (inactive) | > 100 µM (inactive) | > 100 µM (inactive) | > 100 µM (inactive) |  |  |  |  | 
COc1ccc(C2CC(c3cc(C)ccc3O)=NC(N)=N2)cc1 (stereo not drawn) | > 100 µM (inactive) | > 100 µM (inactive) | > 100 µM (inactive) | > 100 µM (inactive) | > 100 µM (inactive) | > 100 µM (inactive) | > 100 µM (inactive) | > 100 µM (inactive) | > 100 µM (inactive) | > 100 µM (inactive) | > 100 µM (inactive) | > 100 µM (inactive) | > 100 µM (inactive) | > 100 µM (inactive) | > 100 µM (inactive) |  |  |  |  | 
S=c1cc(S)c2c(=S)sc3nc4ccccn4c(=S)c3c2s1 |  | 47.2 µM (inactive) | 35.8 µM (inactive) | > 100 µM (inactive) | 25.9 µM (inactive) |  |  | > 100 µM (inactive) | 45.2 µM (inactive) | > 100 µM (inactive) | 21.3 µM (inactive) | > 100 µM (inactive) | > 100 µM (inactive) | > 100 µM (inactive) | 36.1 µM (inactive) |  |  |  |  | 
